Where two headings read alike, the source gives them in different places.
Test: Rat PK study #1 (Compound A PO, methylcellulose vs propylene glycol formulation)
Format: in vivo, Lewis rats
Conditions: male, rat, plasma, Lewis rats, PO 10 mg/kg; for concentration at 2 h / concentration at 4 h / concentration at 8 h / concentration at 24 h / AUC(0-t) / Tmax / Cmax / concentration at 0.083 h / concentration at 0.25 h / concentration at 0.5 h / concentration at 1 h: Lewis, po, 10 mg/kg; for Cmax: read-out: Cmax
Experimental: For the first rat pharmacokinetic study, the pharmacokinetics of Compound A were assessed in male Lewis rats. Compound A was prepared in two different formulations (1% methylcellulose and 20% propylene glycol/20% Vitamin E/60% water) according to Table 3A (see Tables 2A and 2D for formulations). The formulations were made fresh prior to use. Animals were divided into two groups based on the compound formulation (n=3/group). The Compound A solutions were administered to animals orally (PO) and animals were then monitored over a 24 h period.
Blood samples (~0.2 mL) were collected according to a schedule (0.083, 0.25, 0.5, 1, 2, 4, 8, and 24 h following the initial dosing) via the jugular vein by cannulation and EDTA-K2 was used as anticoagulant. Within 30 minutes of collection, the samples were centrifuged at approximately 4000 times g-force for 5 minutes at 4° C. to obtain blood plasma. The plasma samples were immediately divided into two aliquots (~75 μL each), transferred to a cryogenic vial, and stored in a freezer at −75±15° C. prior to analysis.
The concentration of Compound A in plasma samples was determined by liquid chromatography-mass spectrometry (LC-MS/MS) using a Shimadzu HPLC (DGU-20A5R; LC-30AD; SIL-30AC; Rack changer II; CTO-31A; and CBM-20A) and an AB API 5500 LC/MS/MS instrument. Samples were analyzed on an Agilent Poroshell 120 EC-C18 4 μm (50×2.1 mm) column. Solution A in the mobile phase was 95% water (0.1% formic acid) and solution B was 95% acetonitrile in water (0.1% formic acid), injection volume was 3 μL, and flow rate was 0.6 mL/min.
To prepare samples for analysis, serial concentrations were prepared by diluting the stock solution of analyte with a 50% acetonitrile in water solution. 5 μL working solutions (5, 10, 20, 50, 100, 500, 1000, 5000, and 10000 ng/ml) were added to 50 μL of the blank Lewis rat plasma to achieve calibration standards of ~0.5 to 1000 ng/ml (0.5, 1, 2, 5, 10, 50, 100, 500, and 1000 ng/ml) in a total volume of 55 μL. Five quality control samples at 1 ng/ml, 2 ng/ml, 5 ng/mL, 50 ng/mL, and 800 ng/mL for plasma were prepared independently of those used for the calibration curves. These QC samples were prepared on the day of analysis in the same way as calibration standards.
55 μL of standards, 55 μL of QC samples and 55 μL of unknown samples (50 μL of unknown rat plasma with 5 μL of blank solution) were added to 200 μL of acetonitrile containing internal standard (IS; verapamil) mixture for precipitating protein respectively. The samples were then vortexed for 30 s. After centrifugation at 4° C., 3900 rpm for 15 min, the supernatant was diluted 3 times with water. 3 μL of diluted supernatant was injected into the LC/MS/MS system for quantitative analysis.

[1] = 1% methylcellulose formulation, individual animals
[2] = 1% methylcellulose formulation, mean of 3 animals
[3] = propylene glycol/Vitamin E TPGS/water formulation, individual animals
[4] = propylene glycol/Vitamin E TPGS/water formulation, mean of 3 animals

Q: With `Cn1cc(-c2ccccc2)c(-c2cn(C)c(=O)c3[nH]c(-c4cnn(C(F)(F)F)c4)cc23)cc1=O` [Compound A, 6-methyl-4-(1-methyl-2-oxo-5-phenyl-1,2-dihydropyridin-4-yl)-2-(1-(trifluoromethyl)-1H-pyrazol-4-yl)-1,6-dihydro-7H-pyrrolo[2,3-c]pyridin-7-one] as the compound, how does the concentration at 2 h [1] read?
A: 0.0255 µg/mL

Q: And the concentration at 2 h [2]?
A: 0.0233 µg/mL

Q: And the concentration at 4 h [1]?
A: 0.0415 µg/mL

Q: And the concentration at 4 h [2]?
A: 0.0446 µg/mL

Q: What about the concentration at 8 h [2] of the same compound?
A: 0.0491 µg/mL

Q: What about the concentration at 24 h [2] of the same compound?
A: 0.00277 µg/mL

Q: And the AUC(0-t) [1]?
A: 0.48 µg·h/mL

Q: And the Tmax [1]?
A: 4 h

Q: And the Cmax [1]?
A: 0.0415 µg/mL

Q: What about the AUC(0-t) [2] of the same compound?
A: 0.694 µg·h/mL

Q: What about the Tmax [2] of the same compound?
A: 6.67 h

Q: What about the Cmax [2] of the same compound?
A: 0.0531 µg/mL

Q: And the concentration at 0.083 h [3]?
A: 0.00479 µg/mL

Q: And the concentration at 0.083 h [4]?
A: 0.00429 µg/mL

Q: And the concentration at 0.25 h [3]?
A: 0.0445 µg/mL

Q: What about the concentration at 0.25 h [4] of the same compound?
A: 0.0438 µg/mL

Q: And the concentration at 0.5 h [3]?
A: 0.125 µg/mL

Q: And the concentration at 0.5 h [4]?
A: 0.131 µg/mL

Q: And the concentration at 1 h [3]?
A: 0.277 µg/mL

Q: And the concentration at 1 h [4]?
A: 0.268 µg/mL

Q: And the concentration at 2 h [3]?
A: 0.39 µg/mL

Q: And the concentration at 2 h [4]?
A: 0.396 µg/mL

Q: And the concentration at 4 h [3]?
A: 0.445 µg/mL

Q: And the concentration at 4 h [4]?
A: 0.399 µg/mL

Q: What about the concentration at 8 h [3] of the same compound?
A: 0.266 µg/mL

Q: What about the concentration at 8 h [4] of the same compound?
A: 0.189 µg/mL

Q: What about the concentration at 24 h [3] of the same compound?
A: 0.0131 µg/mL

Q: And the concentration at 24 h [4]?
A: 0.0127 µg/mL

Q: And the AUC(0-t) [3]?
A: 4.95 µg·h/mL

Q: And the Tmax [3]?
A: 4 h

Q: And the Cmax [3]?
A: 0.445 µg/mL

Q: And the AUC(0-t) [4]?
A: 4.04 µg·h/mL

Q: And the Tmax [4]?
A: 3.33 h

Q: What about the Cmax [4] of the same compound?
A: 0.419 µg/mL

Q: And the AUC(0-inf) [3]?
A: 3.51 µg·h/mL

Q: What about the half-life [3] of the same compound?
A: 4.33 h

Q: What about the MRT inf (propylene glycol/Vitamin E TPGS/water formulation, individual animals, read-out: MRTInf_obs) of the same compound?
A: 6.39 h

From patent US20260217701A1, “SELECTIVE BET INHIBITORS AND USES THEREOF” (Tay Therapeutics Limited, priority 2022, published 2026)
